Laboratory results reported in ChEMBL document CHEMBL1146657, “A novel 18 beta-glycyrrhetinic acid analogue as a potent and selective inhibitor of 11 beta-hydroxysteroid dehydrogenase 2” (Bioorg Med Chem Lett, 2004).

Columns and labels:
[1] = molecular target: 11-beta-hydroxysteroid dehydrogenase 1 (Rattus norvegicus) (UniProt P16232); test: Percent inhibition against 11-beta-hydroxysteroid dehydrogenase 1 of wistar rat liver cytosol at 10 uM was determined using [3H]cortisone
[2] = molecular target: T1, 11-beta-hydroxysteroid dehydrogenase type 2 (Rattus norvegicus) (UniProt P50233); test: (§1) Percent inhibition against 11-beta-hydroxysteroid dehydrogenase 2 of wistar rat kidney at 10 uM was determined using [3H]cortisol
T1 sequence (whole entry): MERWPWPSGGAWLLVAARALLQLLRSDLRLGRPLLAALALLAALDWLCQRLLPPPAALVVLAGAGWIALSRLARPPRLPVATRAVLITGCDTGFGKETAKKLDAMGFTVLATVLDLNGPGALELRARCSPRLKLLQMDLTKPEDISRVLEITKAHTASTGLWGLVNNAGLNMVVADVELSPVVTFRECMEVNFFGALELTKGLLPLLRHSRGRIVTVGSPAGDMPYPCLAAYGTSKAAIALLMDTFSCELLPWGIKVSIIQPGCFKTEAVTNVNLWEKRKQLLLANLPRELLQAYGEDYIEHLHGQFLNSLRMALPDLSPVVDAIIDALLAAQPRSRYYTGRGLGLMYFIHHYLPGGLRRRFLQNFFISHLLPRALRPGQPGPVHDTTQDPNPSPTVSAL

[3] = molecular target: T2, 11-beta-hydroxysteroid dehydrogenase type 2 (Rattus norvegicus, UniProt P50233); test: as §1
T2 sequence (P50233 whole entry): T1 sequence (whole entry)

Sequence of 11-beta-hydroxysteroid dehydrogenase 1 (Rattus norvegicus) (P16232 whole entry, looked up): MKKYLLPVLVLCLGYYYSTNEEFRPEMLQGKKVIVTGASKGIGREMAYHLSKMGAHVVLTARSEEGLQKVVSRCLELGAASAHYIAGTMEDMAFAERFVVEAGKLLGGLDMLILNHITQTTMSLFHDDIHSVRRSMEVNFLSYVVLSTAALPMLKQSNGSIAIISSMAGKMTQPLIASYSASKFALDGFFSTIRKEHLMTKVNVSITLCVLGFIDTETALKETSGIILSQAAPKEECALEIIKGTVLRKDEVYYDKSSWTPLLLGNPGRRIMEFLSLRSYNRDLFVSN

inhibition [1]	inhibition [2]	IC50 [3]	SMILES
25%	35%	–	CCOC(=O)[C@H](C)NC(=O)[C@@]1(C)CC[C@]2(C)CC[C@]3(C)C(=CC(=O)C4[C@@]5(C)CC[C@H](O)C(C)(C)C5CC[C@]43C)[C@@H]2C1 (some centres not stated)
88%	98%	–	CC1(C)C2CC[C@]3(C)C(C(=O)C=C4[C@@H]5C[C@@](C)(C(=O)NCCCCCO)CC[C@]5(C)CC[C@]43C)[C@@]2(C)CC[C@@H]1O (some centres not stated)
36%	92%	4 pM	CC1(C)C2CC[C@]3(C)C(C(=O)C=C4[C@@H]5C[C@@](C)(C(=O)NCCO)CC[C@]5(C)CC[C@]43C)[C@@]2(C)CC[C@@H]1O (some centres not stated)
19%	66%	–	CC1(C)C2CC[C@]3(C)C(C(=O)C=C4[C@@H]5C[C@@](C)(C(=O)NCCN6CCOCC6)CC[C@]5(C)CC[C@]43C)[C@@]2(C)CC[C@@H]1O (some centres not stated)
85%	101%	–	CC1(C)[C@@H](O)CC[C@]2(C)[C@H]3C(=O)C=C4[C@@H]5C[C@@](C)(C(=O)O)CC[C@]5(C)CC[C@@]4(C)[C@]3(C)CC[C@@H]12
34%	20%	–	CC1(C)C2CC[C@]3(C)C(C(=O)C=C4[C@@H]5C[C@@](C)(C(=O)NN6CCOCC6)CC[C@]5(C)CC[C@]43C)[C@@]2(C)CC[C@@H]1O (some centres not stated)
71%	25%	–	CC1(C)C2CC[C@]3(C)C(C(=O)C=C4[C@@H]5C[C@@](C)(C(=O)NC6CCOC6=O)CC[C@]5(C)CC[C@]43C)[C@@]2(C)CC[C@@H]1O (some centres not stated)
90%	103%	–	CC1(C)C2CC[C@]3(C)C(C(=O)C=C4[C@@H]5C[C@@](C)(C(=O)NC6CC6)CC[C@]5(C)CC[C@]43C)[C@@]2(C)CC[C@@H]1O (some centres not stated)
